Data from publication PMC3257585 (Journal of Medicinal Chemistry, 2011).

Legend:
FLT3 = molecular target: T1, FLT3 (Homo sapiens, UniProt P36888); experiment: In vitro kinase selectivity panel; type: biochemical
T1 sequence (P36888 27-993): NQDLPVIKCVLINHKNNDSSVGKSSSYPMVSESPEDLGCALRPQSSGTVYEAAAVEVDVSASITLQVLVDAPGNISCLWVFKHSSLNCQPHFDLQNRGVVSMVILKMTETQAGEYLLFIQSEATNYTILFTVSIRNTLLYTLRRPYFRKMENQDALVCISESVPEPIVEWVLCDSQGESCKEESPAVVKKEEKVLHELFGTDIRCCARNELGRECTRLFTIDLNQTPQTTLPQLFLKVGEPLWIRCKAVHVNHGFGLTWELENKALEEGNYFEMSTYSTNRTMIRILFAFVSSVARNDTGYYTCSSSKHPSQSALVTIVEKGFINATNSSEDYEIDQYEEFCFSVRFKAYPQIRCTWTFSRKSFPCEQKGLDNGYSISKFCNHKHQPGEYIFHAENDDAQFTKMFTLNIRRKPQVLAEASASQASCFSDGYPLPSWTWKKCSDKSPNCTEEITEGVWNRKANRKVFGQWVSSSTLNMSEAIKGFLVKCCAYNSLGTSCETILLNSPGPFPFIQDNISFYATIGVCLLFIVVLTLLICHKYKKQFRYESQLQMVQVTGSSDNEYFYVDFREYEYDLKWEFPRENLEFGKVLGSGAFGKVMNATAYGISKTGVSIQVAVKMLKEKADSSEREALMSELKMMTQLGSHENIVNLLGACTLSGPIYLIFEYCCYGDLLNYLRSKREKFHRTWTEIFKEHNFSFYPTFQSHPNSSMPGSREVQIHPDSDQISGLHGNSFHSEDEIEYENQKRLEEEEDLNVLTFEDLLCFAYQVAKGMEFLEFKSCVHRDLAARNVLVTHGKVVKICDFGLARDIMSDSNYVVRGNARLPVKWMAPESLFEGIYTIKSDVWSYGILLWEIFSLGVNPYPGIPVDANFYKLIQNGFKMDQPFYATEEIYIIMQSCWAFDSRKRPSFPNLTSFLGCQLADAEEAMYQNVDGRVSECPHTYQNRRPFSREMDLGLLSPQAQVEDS

PIM1 = PIM1 (Homo sapiens, UniProt P11309); experiment: Thermal stability shift assay; type: binding; conditions: Tm shift assay
PIM1, sequence (P11309 whole entry): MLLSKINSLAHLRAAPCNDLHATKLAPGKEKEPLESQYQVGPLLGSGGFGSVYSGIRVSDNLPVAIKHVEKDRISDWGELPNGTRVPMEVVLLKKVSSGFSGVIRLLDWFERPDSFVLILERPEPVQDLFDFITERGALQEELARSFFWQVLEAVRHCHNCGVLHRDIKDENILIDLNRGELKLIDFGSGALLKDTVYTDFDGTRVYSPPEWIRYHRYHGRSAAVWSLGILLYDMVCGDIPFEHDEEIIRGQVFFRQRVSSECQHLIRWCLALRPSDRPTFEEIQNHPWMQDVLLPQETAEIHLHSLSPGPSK

PDGFRa = PDGFRa (Homo sapiens, UniProt P16234); experiment: In vitro kinase selectivity panel; type: biochemical
PDGFRa, sequence (P16234 24-1089): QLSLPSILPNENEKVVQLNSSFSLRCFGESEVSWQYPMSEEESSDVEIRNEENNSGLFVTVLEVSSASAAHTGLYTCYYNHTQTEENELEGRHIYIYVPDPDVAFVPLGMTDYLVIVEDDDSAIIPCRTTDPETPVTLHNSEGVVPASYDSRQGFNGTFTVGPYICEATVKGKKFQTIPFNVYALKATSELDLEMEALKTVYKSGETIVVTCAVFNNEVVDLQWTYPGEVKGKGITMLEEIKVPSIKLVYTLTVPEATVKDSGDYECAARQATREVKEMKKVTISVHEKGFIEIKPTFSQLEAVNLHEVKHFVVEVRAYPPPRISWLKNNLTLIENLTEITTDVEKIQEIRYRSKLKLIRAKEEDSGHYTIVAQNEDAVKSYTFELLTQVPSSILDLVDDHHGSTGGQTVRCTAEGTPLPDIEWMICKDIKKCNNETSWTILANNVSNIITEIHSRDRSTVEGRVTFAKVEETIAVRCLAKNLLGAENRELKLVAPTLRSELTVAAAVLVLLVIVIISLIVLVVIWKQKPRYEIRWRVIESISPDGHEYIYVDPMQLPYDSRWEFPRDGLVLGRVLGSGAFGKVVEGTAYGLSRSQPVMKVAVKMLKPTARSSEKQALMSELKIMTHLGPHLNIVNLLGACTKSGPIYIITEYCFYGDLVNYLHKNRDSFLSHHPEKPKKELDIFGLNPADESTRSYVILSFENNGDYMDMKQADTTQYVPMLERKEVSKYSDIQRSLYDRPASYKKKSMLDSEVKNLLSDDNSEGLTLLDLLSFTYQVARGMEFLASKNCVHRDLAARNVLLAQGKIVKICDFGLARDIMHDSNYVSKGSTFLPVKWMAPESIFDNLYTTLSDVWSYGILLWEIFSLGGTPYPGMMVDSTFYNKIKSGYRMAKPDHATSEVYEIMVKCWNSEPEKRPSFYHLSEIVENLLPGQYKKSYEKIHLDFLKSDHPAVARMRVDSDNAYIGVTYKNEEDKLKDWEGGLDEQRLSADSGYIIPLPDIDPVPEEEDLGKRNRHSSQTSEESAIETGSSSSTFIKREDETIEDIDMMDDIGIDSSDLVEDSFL

cKIT = cKIT (Homo sapiens, UniProt P10721); experiment: In vitro kinase selectivity panel; type: biochemical
cKIT, sequence (P10721 26-976): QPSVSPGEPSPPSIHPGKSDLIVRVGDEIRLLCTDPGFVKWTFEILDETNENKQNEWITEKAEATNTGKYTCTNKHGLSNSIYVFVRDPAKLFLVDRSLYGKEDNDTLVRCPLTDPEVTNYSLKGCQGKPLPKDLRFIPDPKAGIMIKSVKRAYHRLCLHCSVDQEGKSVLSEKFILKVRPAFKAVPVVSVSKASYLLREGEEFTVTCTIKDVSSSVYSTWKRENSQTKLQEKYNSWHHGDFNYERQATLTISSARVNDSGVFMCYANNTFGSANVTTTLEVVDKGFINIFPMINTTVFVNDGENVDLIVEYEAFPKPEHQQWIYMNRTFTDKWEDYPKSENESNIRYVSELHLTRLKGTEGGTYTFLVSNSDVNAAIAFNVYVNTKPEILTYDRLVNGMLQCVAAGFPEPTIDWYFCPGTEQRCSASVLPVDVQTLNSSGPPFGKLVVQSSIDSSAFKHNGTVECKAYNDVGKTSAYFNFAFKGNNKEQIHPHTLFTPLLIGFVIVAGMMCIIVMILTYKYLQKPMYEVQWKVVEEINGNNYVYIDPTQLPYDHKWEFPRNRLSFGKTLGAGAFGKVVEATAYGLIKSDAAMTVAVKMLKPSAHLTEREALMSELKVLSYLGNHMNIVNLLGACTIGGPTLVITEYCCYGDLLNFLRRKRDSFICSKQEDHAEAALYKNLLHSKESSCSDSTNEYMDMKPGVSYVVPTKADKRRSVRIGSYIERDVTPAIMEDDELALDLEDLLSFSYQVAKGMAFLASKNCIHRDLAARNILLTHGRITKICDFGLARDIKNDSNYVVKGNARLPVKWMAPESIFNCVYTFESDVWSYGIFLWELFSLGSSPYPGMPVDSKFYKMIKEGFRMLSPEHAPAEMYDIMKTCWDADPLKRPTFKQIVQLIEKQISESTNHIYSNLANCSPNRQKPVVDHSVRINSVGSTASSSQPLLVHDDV

[1] = test system: phosphorylation of 4E-BP1; experiment: Western blot of 4E-BP1 phosphorylation in MV4; type: cell-based, human; conditions: MV4;11 cells, 0–10 μM
PDK1v2 = molecular target: T2, PDK1v2 (Homo sapiens, UniProt O15530); experiment: In vitro kinase selectivity panel; type: biochemical
T2 sequence (O15530 1-556): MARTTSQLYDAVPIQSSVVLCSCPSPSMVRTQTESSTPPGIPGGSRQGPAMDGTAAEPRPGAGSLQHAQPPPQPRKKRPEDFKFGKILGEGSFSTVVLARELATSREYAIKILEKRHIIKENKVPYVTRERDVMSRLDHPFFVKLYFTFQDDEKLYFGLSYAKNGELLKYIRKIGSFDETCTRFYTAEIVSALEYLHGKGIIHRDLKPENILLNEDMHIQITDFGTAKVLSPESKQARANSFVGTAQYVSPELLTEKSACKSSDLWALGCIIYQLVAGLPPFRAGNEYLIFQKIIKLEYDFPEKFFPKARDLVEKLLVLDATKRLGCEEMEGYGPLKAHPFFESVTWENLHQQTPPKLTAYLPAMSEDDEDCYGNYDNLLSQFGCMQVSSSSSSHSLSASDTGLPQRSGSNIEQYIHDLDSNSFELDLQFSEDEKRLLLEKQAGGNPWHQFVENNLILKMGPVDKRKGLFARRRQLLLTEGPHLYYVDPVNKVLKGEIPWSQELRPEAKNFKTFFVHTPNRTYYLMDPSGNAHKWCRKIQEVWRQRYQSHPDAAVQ

HER4 = HER4 (Homo sapiens, UniProt Q15303); experiment: In vitro kinase selectivity panel; type: biochemical
HER4, sequence (Q15303 26-1308): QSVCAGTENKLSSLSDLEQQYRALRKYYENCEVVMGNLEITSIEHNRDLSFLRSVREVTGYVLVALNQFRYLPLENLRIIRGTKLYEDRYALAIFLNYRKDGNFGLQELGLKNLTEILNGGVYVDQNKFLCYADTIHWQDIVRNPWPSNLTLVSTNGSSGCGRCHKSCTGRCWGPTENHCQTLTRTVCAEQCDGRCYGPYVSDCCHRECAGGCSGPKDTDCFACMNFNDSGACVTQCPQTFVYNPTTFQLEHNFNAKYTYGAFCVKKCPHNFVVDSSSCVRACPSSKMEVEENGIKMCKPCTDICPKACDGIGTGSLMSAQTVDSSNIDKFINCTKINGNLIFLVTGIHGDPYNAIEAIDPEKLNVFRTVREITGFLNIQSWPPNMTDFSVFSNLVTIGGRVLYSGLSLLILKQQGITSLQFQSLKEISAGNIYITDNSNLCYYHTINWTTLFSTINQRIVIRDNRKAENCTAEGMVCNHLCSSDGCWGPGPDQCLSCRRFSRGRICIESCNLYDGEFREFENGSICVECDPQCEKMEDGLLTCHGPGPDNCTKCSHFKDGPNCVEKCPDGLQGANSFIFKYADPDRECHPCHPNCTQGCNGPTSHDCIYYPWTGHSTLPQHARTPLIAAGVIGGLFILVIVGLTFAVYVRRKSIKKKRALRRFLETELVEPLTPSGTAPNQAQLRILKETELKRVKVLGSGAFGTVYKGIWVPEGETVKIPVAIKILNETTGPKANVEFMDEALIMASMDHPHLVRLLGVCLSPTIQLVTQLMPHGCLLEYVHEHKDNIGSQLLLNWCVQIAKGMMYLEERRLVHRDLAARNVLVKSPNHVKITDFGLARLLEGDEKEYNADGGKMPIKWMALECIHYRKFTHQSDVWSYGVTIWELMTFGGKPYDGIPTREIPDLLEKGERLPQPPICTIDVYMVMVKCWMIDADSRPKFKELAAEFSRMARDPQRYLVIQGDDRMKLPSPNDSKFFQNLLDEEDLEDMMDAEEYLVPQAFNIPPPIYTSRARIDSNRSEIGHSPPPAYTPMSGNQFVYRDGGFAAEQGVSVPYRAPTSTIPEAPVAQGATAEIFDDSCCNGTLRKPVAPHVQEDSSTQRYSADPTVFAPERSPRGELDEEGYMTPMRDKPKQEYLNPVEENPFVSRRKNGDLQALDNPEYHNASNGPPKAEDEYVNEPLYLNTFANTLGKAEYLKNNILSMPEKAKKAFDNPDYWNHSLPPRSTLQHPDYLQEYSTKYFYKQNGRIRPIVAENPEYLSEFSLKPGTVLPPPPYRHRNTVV

PKA = PKA (Homo sapiens, UniProt P17612); experiment: In vitro kinase selectivity panel; type: biochemical
BTKv2 = BTKv2 (Homo sapiens, UniProt Q06187); experiment: In vitro kinase selectivity panel; type: biochemical
BTKv2, sequence (Q06187 whole entry): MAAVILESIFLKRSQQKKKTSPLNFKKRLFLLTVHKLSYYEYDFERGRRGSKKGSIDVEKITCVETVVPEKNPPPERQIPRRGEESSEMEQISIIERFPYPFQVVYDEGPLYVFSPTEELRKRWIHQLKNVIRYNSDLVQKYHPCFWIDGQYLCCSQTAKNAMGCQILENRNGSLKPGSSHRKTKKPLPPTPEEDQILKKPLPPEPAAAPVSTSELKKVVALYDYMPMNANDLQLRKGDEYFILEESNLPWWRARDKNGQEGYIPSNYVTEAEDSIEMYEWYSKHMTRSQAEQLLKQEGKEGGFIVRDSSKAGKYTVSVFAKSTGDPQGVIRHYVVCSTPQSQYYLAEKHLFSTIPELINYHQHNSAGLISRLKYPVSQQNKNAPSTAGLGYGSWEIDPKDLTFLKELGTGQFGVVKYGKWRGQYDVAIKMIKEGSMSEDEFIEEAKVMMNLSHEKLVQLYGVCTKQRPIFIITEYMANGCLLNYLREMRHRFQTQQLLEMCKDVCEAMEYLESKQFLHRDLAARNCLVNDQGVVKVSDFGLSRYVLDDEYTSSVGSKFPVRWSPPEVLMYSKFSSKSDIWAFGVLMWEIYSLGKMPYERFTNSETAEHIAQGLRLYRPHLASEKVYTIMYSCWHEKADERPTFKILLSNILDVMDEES

CaMK2 = CaMK2 (Homo sapiens, UniProt Q13555); experiment: In vitro kinase selectivity panel; type: biochemical
CaMK2, sequence (Q13555 whole entry): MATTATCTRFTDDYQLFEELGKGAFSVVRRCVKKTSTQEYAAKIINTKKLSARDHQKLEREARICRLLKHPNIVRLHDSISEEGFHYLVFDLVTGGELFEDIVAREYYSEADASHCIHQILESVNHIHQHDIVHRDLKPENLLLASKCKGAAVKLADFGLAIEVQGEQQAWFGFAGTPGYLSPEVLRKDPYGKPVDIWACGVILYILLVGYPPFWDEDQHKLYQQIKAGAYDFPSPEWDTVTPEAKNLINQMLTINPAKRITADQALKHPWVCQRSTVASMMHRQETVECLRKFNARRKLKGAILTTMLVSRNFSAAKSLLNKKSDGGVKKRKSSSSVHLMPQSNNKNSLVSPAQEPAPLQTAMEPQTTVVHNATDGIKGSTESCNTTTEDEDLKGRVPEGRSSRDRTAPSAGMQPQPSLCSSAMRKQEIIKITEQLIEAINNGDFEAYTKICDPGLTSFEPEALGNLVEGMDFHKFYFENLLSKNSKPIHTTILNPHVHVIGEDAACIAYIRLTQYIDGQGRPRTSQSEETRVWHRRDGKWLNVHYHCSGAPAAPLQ

Molecule | activity against FLT3 (in words) (FLT3) | activity against PIM1 (in words) (PIM1) | activity against PDGFRα (in words) (PDGFRa) | activity against KIT (in words) (cKIT) | also measured
CN1CCC2(CC1)NC(=O)c1c(c3ccc(Cl)c(Cl)c3n1C)C2C#N (racemic) [Compound 17, (4′RS)-7′,8′-Dichloro-1,9′-dimethyl-1′-oxo-1′,2′,4′,9′-tetrahydrospiro[piperidine-4,3′-pyrido[3,4-b]indole]-4′-carbonitrile] | did not exhibit any significant activity | highly potent inhibitors | did not exhibit any significant activity | did not exhibit any significant activity | 
Cn1c2c(c3ccc(Cl)c(Cl)c31)C(C#N)C1(CCN(C(=O)OC(C)(C)C)CC1)NC2=O (racemic) [Compound 19, (4′RS)-tert-Butyl 7′,8′-Dichloro-4′-cyano-9′-methyl-1′-oxo-1′,2′,4′,9′-tetrahydrospiro[piperidine-4,3′-pyrido[3,4-b]indole]-1-carboxylate] |  | did not exhibit any inhibitory potency |  |  | 
Cn1c2c(c3ccc(Cl)c(Cl)c31)C(C#N)C1(CCNCC1)NC2=O (racemic) [Compound 20, (4′RS)-7′,8′-Dichloro-9′-methyl-1′-oxo-1′,2′,4′,9′-tetrahydrospiro[piperidine-4,3′-pyrido[3,4-b]indole]-4′-carbonitrile] | did not exhibit any significant activity | highly potent inhibitors | did not exhibit any significant activity | did not exhibit any significant activity | phosphorylation of 4E-BP1 [1]: dose-dependent decrease; IC50 (PDK1v2): > 10 µM; IC50 (HER4): > 10 µM; IC50 (PKA): < 100 nM; IC50 (BTKv2): > 10 µM; IC50 (CaMK2): < 100 nM
(4RS)-N-[(7,8-Dichloro-3,3-dimethyl-1-oxo-2,3,4,9-tetrahydro-1H-pyrido[3,4-b]indol-4-yl)methyl]acetamide [Compound 24] |  | complete loss of activity |  |  | 
CCN1CCC2(CC1)NC(=O)c1c(c3ccc(Cl)c(Cl)c3n1C)C2C#N (racemic) [Compound 18, (4′RS)-7′,8′-Dichloro-1-ethyl-9′-methyl-1′-oxo-1′,2′,4′,9′-tetrahydrospiro[piperidine-4,3′-pyrido[3,4-b]indole]-4′-carbonitrile] |  | highly potent inhibitors |  |  | 
